# In paper PMC9259545, “Impact of poly-arginine peptides R18D and R18 on alteplase and tenecteplase thrombolysis in vitro, and neuroprotective stability to proteolysis” (Journal of Thrombosis and Thrombolysis, 2022):
# Non-standard residues stand in square brackets, D forms with d. Residues, ends and D or L forms follow the SMILES beside them.
# Tests used:
# TNK [1] = target: T1, TNK (Homo sapiens, UniProt P00750, H332A/K331A/N152Q/R333A/R334A/T138N); assay: Halo clot thrombolysis assay, TNK thrombolysis of whole blood clots; type: biochemical; conditions: TNK 5 nM, 27.5% human plasma
# T1 construct: purchased Boehringer Ingelheim 50 mg vial
# Description: We utilised a high throughput 96-well plate thrombolysis assay (“halo clot assay”) based on the procedure developed by Bonnard et al.. To reduce assay components the halo thrombus formation procedure was modified by replacing the original thrombotic mixture consisting of recombinant tissue factor and synthetic phospholipids reconstituted in 30 mM calcium, with thrombin, and reducing the pro-thrombotic volume (i.e., thrombin) from 5 to 3 µL and blood volume from 25 to 12 µL. Another modification to simplify clot formation consisted of adding the thrombin (3 µL; 500 nM in saline) to one side of the well and 12 µL of blood to the opposite side of well, before using a heat stretched Pasteur pipette with sealed end to mix the two liquids together using 4 to 5 circular motions around the edge of the well (halo clot). The original methodology involved adding the 5 μL of the clotting mixture to the edge of the well, and then using a micropipette to slowly release the 25 μL of blood to the edge of the well while at the same time maintaining a circular motion. Plates were incubated in a humidified 37 °C incubator for 1 h before use in the thrombolysis assay.
# The thrombolysis assay involved adding 30 µL of Tris buffer (50 mM Tris–HCl, 100 mM NaCl, pH 7.4) with or without peptide followed by 55 µL Tris buffer containing tPA or TNK (5 nM final concentration) and 50% human plasma (final plasma concentration during thrombolysis 27.5%). The final concentration of peptide during thrombolysis ranged from 0.25 to 16 µM (note: an intravenous dose of R18D at 350 nmol/kg, which is likely to be neuroprotective achieves a Cmax of 0.7–0.9 µM in healthy male and female rats; unpublished observation). […] Following the addition of tPA or TNK into the wells, clot lysis was monitored over a 1-h period at 37 °C using a plate reader (Cytation5, BioTek, USA) by measuring absorbance at 510 nm every 1 min immediately after orbital shaking (205 rpm for 5 s). Controls consisted of wells with no thrombin (100% clot lysis; L100%) and wells with no tPA or TNK (0% clot lysis; L0%). At the 1-h time point, the percentage of thrombolysis (%T) in tPA or TNK treated samples (LTX) was calculated by transforming absorbance values based on the formula: % T = (LTX) − (L0%)/(L100%) − (L0%) × 100. In addition, during the 1-h period of clot lysis lag time and maximal activity (also known as maximum velocity or Vmax) of the thrombolysis reaction were calculated. The lag time is defined as the time interval between the first absorbance reading (time = 0) and the line of maximum slope of the thrombolysis reaction. The maximal activity is calculated from the maximum slope over the time course of the assay and reflects the capacity of an enzyme to catalyse a reaction (i.e., thrombolysis), with higher values representing higher catalytic activity (i.e., tPA/TNK induced plasmin thrombolysis).
# For each thrombolysis assay, replicates for control wells (L0% and L100%) and tPA or TNK only treated wells consisted of n = 4–8. Replicates for tPA or TNK and peptide treated wells consisted of n = 4. For data analysis and graphical representations of the results, data from three independent thrombolytic assays were pooled. Studies consisted of R18D, R18 and NA-1 examined at the 0.5, 1, 2, 4, 8 or 16 µM concentrations performed concurrently on the same 96-well plate, in respective order. In addition, since R18D is known to be resistant to plasmin degradation and appeared to have the most impact on tPA or TNK thrombolysis, a separate set of three independent assays were performed for this peptide alone at concentrations of 0.25, 0.5, 1, 2, 4, 8 or 16 µM. Furthermore, the second dose study with R18D provided the opportunity to include a lower concentration (0.25 µM) of the peptide and to provide comparative data when only one peptide was examined in the thrombolysis assay per 96-well plate as opposed to examining the three peptides concurrently on the same plate. […]
# TNK [2] = target: T1, TNK; assay: Neuroprotective proteolytic stability after pre-incubation with TNK (glutamic acid excitotoxicity model, MTS); type: in vitro ADME; conditions: 1 or 2 h or overnight (22-24 h)
# Description: (§1) Neuronal cultures were maintained in CO2 incubator.
# (§2) tPA (1000 µg/mL) or TNK (5000 µg/mL) resuspended in water (Baxter) were used to prepare 10 µg/mL (170 nM; note this is 34 times the concentration used in thrombolysis assay) stocks in MEM/2% B27 supplement (MEM/B27).
# (§3) All data are presented as mean ± standard deviation (SD).
# tPA = target: T2, tPA (Homo sapiens, UniProt P00750); assay: Neuroprotective proteolytic stability after pre-incubation with tPA (glutamic acid excitotoxicity model, MTS); type: in vitro ADME; conditions: 1 or 2 h or overnight (22-24 h)
# T2 construct: purchased Boehringer Ingelheim, Germany 10 mg vial
# Description: as §1, §2, §3
# [3] = separate dose study, R18D alone, 0.25-16 µM
# T1 sequence (P00750 36-562 T138N/N152Q/K331A/H332A/R333A/R334A): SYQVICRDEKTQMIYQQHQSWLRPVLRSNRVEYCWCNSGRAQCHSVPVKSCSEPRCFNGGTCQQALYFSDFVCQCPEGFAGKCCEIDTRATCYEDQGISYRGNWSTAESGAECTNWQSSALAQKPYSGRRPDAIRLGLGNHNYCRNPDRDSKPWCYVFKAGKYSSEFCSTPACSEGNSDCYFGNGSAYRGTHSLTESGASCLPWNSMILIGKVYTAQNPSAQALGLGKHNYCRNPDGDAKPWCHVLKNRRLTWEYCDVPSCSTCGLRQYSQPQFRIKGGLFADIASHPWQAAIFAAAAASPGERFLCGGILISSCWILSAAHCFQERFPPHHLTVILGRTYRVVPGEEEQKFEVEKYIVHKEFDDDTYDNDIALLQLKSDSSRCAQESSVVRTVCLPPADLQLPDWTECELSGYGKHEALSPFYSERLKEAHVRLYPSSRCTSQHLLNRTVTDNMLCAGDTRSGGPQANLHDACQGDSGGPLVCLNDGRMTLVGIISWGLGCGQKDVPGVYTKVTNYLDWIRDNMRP
# T2 sequence (P00750 36-562): as the sequence (P00750 36-562 T138N/N152Q/K331A/H332A/R333A/R334A) above, with N103T, Q117N, A296K, A297H, A298R, A299R counted along it
smiles,measurement,setting,value
N=C(N)NCCC[C@@H](N)C(=O)N[C@H](CCCNC(=N)N)C(=O)N[C@H](CCCNC(=N)N)C(=O)N[C@H](CCCNC(=N)N)C(=O)N[C@H](CCCNC(=N)N)C(=O)N[C@H](CCCNC(=N)N)C(=O)N[C@H](CCCNC(=N)N)C(=O)N[C@H](CCCNC(=N)N)C(=O)N[C@H](CCCNC(=N)N)C(=O)N[C@H](CCCNC(=N)N)C(=O)N[C@H](CCCNC(=N)N)C(=O)N[C@H](CCCNC(=N)N)C(=O)N[C@H](CCCNC(=N)N)C(=O)N[C@H](CCCNC(=N)N)C(=O)N[C@H](CCCNC(=N)N)C(=O)N[C@H](CCCNC(=N)N)C(=O)N[C@H](CCCNC(=N)N)C(=O)N[C@H](CCCNC(=N)N)C(=O)O [R18D] (H-[dR][dR][dR][dR][dR][dR][dR][dR][dR][dR][dR][dR][dR][dR][dR][dR][dR][dR]-OH),Effect on TNK thrombolysis maximal activity vs TNK control,"TNK [1]; concurrent study, 0.5-16 µM peptide",did not significantly impact TNK thrombolysis maximal activity
same,Increase in TNK lag time,"TNK [1]; peptide 4 µM, concurrent study, 37 °C",6.64 min
same,Decrease in TNK thrombolysis,"TNK [1]; peptide 4 µM, concurrent study, 37 °C, 1 h, p = 0.022",9.35%
same,Increase in TNK lag time,"TNK [1]; peptide 8 µM, concurrent study, 37 °C",9.9 min
same,Decrease in TNK thrombolysis,"TNK [1]; peptide 8 µM, concurrent study, 37 °C, 1 h, p = 0.044",8.71%
same,Increase in TNK lag time,"TNK [1]; peptide 16 µM, concurrent study, 37 °C",8.76 min
same,Effect on TNK lag time vs TNK control,TNK [1]; [3],did not impact TNK lag time at any concentration
same,Effect on TNK thrombolysis maximal activity vs TNK control,TNK [1]; [3],did not significantly impact TNK thrombolysis maximal activity at any concentration
same,Effect on percentage TNK thrombolysis at 1 h vs TNK control,"TNK [1]; separate dose study, R18D alone, 0.25-16 µM, 37 °C, 1 h",did not inhibit TNK thrombolysis
same,Resistance to degradation by TNK,"TNK [2]; inferred from retained neuroprotection, peptide 2 µM, TNK 170 nM",resistant to degradation
same,Neuroprotective efficacy after incubation with TNK,"TNK [2]; peptide 2 µM in MEM/B27 with TNK 10 µg/mL (170 nM), 37 °C CO2 incubator, then rat cortical neurons, glutamic acid 100 µM 5 min, MTS viability at 20-24 h, N = 4-8",a similar and a high level of neuroprotective efficacy
same,Resistance to degradation by tPA,"tPA; inferred from retained neuroprotection, peptide 2 µM, tPA 170 nM",resistant to degradation
same,Neuroprotective efficacy after incubation with tPA,"tPA; peptide 2 µM in MEM/B27 with tPA 10 µg/mL (170 nM), 37 °C CO2 incubator, then rat cortical neurons, glutamic acid 100 µM 5 min, MTS viability at 20-24 h, N = 4-8",a similar and a high level of neuroprotective efficacy
